Reference: PubChem BioAssay (NCI)
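Compound exposure: 48 hours, 5 concentrations, 96-well plates. TGI marks complete inhibition of growth.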 Where a SMILES comes first, the peptide text is derived from it. [ ]: non-standard residue; d: D form. The star is where a group is joined. ξ: configuration not given here. Propanoyl(3-(4-MeO-Ph)) = COc1ccc(CCC(=O)*)cc1; Thr(3ξ) = CC(O)[C@H](N)C(=O)O; dNMeL = CN[C@H](CC(C)C)C(=O)O; ξLac = CC(O)C(=O)O

Assays:
Experiment in all cases: NCI-60 cell line screen, 48 h
U251 CNS = test system: U251 CNS
NCI-H460 lung = test system: NCI-H460 lung
ACHN renal = test system: ACHN renal
HCT-116 colon = test system: HCT-116 colon
NCI-H23 lung = test system: NCI-H23 lung
SK-OV-3 ovarian = test system: SK-OV-3 ovarian
COLO 205 colon = test system: COLO 205 colon
HOP-62 NSCLC = test system: HOP-62 NSCLC
PC-3 prostate = test system: PC-3 prostate
SK-MEL-5 melanoma = test system: SK-MEL-5 melanoma

`O=C1c2ccccc2-c2nnc(-c3ccc(Cl)cc3)cc21` was tested, and the TGI (U251 CNS) was greater than 10 µM, the TGI (NCI-H460 lung) was greater than 10 µM and the TGI (ACHN renal) was greater than 10 µM. It also gave a TGI (HCT-116 colon) greater than 10 µM, a TGI (NCI-H23 lung) greater than 10 µM and a TGI (SK-OV-3 ovarian) greater than 10 µM. The TGI (COLO 205 colon) was greater than 10 µM, the TGI (HOP-62 NSCLC) was greater than 10 µM and the TGI (PC-3 prostate) was greater than 10 µM. The TGI (SK-MEL-5 melanoma) was greater than 10 µM.
In the case of `Cn1c(N=[N+]=[N-])cc(=O)n(C)c1=O`, the TGI (U251 CNS) is reported as greater than 100 µM, the TGI (NCI-H460 lung) is reported as greater than 100 µM and the TGI (ACHN renal) is reported as greater than 100 µM. For the same compound, the TGI (HCT-116 colon) was greater than 100 µM, the TGI (NCI-H23 lung) was greater than 100 µM and the TGI (SK-OV-3 ovarian) was greater than 100 µM. For the same compound, the TGI (COLO 205 colon) was greater than 100 µM, the TGI (HOP-62 NSCLC) was greater than 100 µM and the TGI (PC-3 prostate) was greater than 100 µM. For the same compound, the TGI (SK-MEL-5 melanoma) was greater than 100 µM.
With `O=[N+]([O-])c1ccc2nc(/C=C(\O)c3ccccc3)c(/C=C(\O)c3ccccc3)nc2c1` the TGI (U251 CNS) was 22.9 µM, the TGI (NCI-H460 lung) was greater than 81 µM and the TGI (ACHN renal) was greater than 100 µM. It also gave a TGI (HCT-116 colon) greater than 37.8 µM, a TGI (NCI-H23 lung) greater than 60.4 µM and a TGI (SK-OV-3 ovarian) greater than 75.4 µM. It also gave a TGI (COLO 205 colon) greater than 100 µM, a TGI (HOP-62 NSCLC) of 35.2 µM and a TGI (PC-3 prostate) greater than 100 µM. For the same compound, the TGI (SK-MEL-5 melanoma) was greater than 39.2 µM.
`Cc1oncc1NC1=CC(=O)C(=O)c2ccccc21` showed a TGI (U251 CNS) of 17.3 µM, a TGI (NCI-H460 lung) of 20.3 µM and a TGI (ACHN renal) of 16.7 µM. For the same compound, the TGI (HCT-116 colon) was 10.6 µM, the TGI (NCI-H23 lung) was 17.6 µM and the TGI (SK-OV-3 ovarian) was 37.8 µM. For the same compound, the TGI (COLO 205 colon) was 37.1 µM, the TGI (HOP-62 NSCLC) was 36.8 µM and the TGI (PC-3 prostate) was 10 µM. For the same compound, the TGI (SK-MEL-5 melanoma) was 3.68 µM.
`NC(=O)C[C@H](NC(=O)C1(NC(=O)[C@H](Cc2ccc(CP(=O)(O)O)cc2)NC(=O)C(=O)O)CCCCC1)C(=O)NCCCc1cccc2ccccc12` showed a TGI (U251 CNS) greater than 10 µM, a TGI (NCI-H460 lung) greater than 10 µM and a TGI (ACHN renal) greater than 10 µM. The TGI (HCT-116 colon) was greater than 10 µM, the TGI (NCI-H23 lung) was greater than 10 µM and the TGI (SK-OV-3 ovarian) was greater than 10 µM. It also gave a TGI (COLO 205 colon) greater than 10 µM, a TGI (HOP-62 NSCLC) greater than 10 µM and a TGI (PC-3 prostate) greater than 10 µM. The TGI (SK-MEL-5 melanoma) was greater than 10 µM.
`CSC1(SC)N2Cc3ccccc3N=C2C1(c1ccccc1)c1ccccc1` showed a TGI (U251 CNS) greater than 58.9 µM, a TGI (NCI-H460 lung) of 64.3 µM and a TGI (ACHN renal) greater than 100 µM. For the same compound, the TGI (HCT-116 colon) was greater than 100 µM, the TGI (NCI-H23 lung) was greater than 100 µM and the TGI (SK-OV-3 ovarian) was greater than 100 µM. For the same compound, the TGI (COLO 205 colon) was 15.6 µM, the TGI (HOP-62 NSCLC) was greater than 100 µM and the TGI (PC-3 prostate) was greater than 100 µM. It also gave a TGI (SK-MEL-5 melanoma) of 28.8 µM.
Compound `O=C(Cn1c(=O)oc2ccc(C(=O)c3ccccc3Cl)cc21)c1ccc([N+](=O)[O-])cc1` has a TGI (U251 CNS) greater than 100 µM, a TGI (NCI-H460 lung) of 55.7 µM and a TGI (ACHN renal) greater than 100 µM. The TGI (HCT-116 colon) was 35.6 µM, the TGI (NCI-H23 lung) was greater than 100 µM and the TGI (SK-OV-3 ovarian) was 66 µM. It also gave a TGI (COLO 205 colon) of 39.6 µM, a TGI (HOP-62 NSCLC) greater than 100 µM and a TGI (PC-3 prostate) greater than 100 µM. The TGI (SK-MEL-5 melanoma) was 40.5 µM.
For `COC(=O)[C@@H](NC(=O)[C@@H](CC(C)C)N(C)C(=O)[C@@H]1CCCN1C(=O)C(C)O)C(C)OC(=O)CCc1ccc(OC)cc1` (stereo not given in full) (H-[ξLac]P[dNMeL][Thr(3ξ)](Propanoyl(3-(4-MeO-Ph)))-OMe), the TGI (U251 CNS) was greater than 100 µM, the TGI (NCI-H460 lung) was greater than 100 µM and the TGI (ACHN renal) was greater than 100 µM. For the same compound, the TGI (HCT-116 colon) was greater than 100 µM, the TGI (NCI-H23 lung) was greater than 100 µM and the TGI (SK-OV-3 ovarian) was greater than 100 µM. The TGI (COLO 205 colon) was greater than 100 µM, the TGI (HOP-62 NSCLC) was greater than 100 µM and the TGI (PC-3 prostate) was greater than 100 µM. The TGI (SK-MEL-5 melanoma) was greater than 100 µM.
`COc1nc2ccc(CNc3ccc(C(=O)O)cc3)cc2nc1OC` was tested, and the TGI (U251 CNS) was greater than 10 µM, the TGI (NCI-H460 lung) was greater than 10 µM and the TGI (ACHN renal) was greater than 10 µM. For the same compound, the TGI (HCT-116 colon) was greater than 10 µM, the TGI (NCI-H23 lung) was greater than 10 µM and the TGI (SK-OV-3 ovarian) was greater than 10 µM. For the same compound, the TGI (COLO 205 colon) was greater than 10 µM, the TGI (HOP-62 NSCLC) was greater than 10 µM and the TGI (PC-3 prostate) was greater than 10 µM. It also gave a TGI (SK-MEL-5 melanoma) greater than 10 µM.
In the case of `CC(C)=CCCC1(Sc2ccccc2)C(=O)OCC1C=C(C)C` (stereo not given), the TGI (U251 CNS) is reported as greater than 100 µM, the TGI (NCI-H460 lung) is reported as greater than 100 µM and the TGI (ACHN renal) is reported as greater than 100 µM. The TGI (HCT-116 colon) was 45.8 µM, the TGI (NCI-H23 lung) was greater than 100 µM and the TGI (SK-OV-3 ovarian) was greater than 100 µM. For the same compound, the TGI (COLO 205 colon) was 50 µM, the TGI (HOP-62 NSCLC) was greater than 100 µM and the TGI (PC-3 prostate) was greater than 100 µM. It also gave a TGI (SK-MEL-5 melanoma) of 36.7 µM.
For `COc1cc(C2c3cc4c(cc3OC3(OC)COC(=O)C23)OCO4)cc(OC)c1OC` (stereo not given), the TGI (U251 CNS) was greater than 66.3 µM, the TGI (NCI-H460 lung) was greater than 67.9 µM and the TGI (ACHN renal) was greater than 100 µM. It also gave a TGI (HCT-116 colon) of 7 µM, a TGI (NCI-H23 lung) greater than 100 µM and a TGI (SK-OV-3 ovarian) greater than 100 µM. For the same compound, the TGI (COLO 205 colon) was 0.64 µM, the TGI (HOP-62 NSCLC) was greater than 100 µM and the TGI (PC-3 prostate) was greater than 44.9 µM. It also gave a TGI (SK-MEL-5 melanoma) of 7.46 µM.
Work on `Clc1ccc2nc(CC3CCCC3)[nH]c2c1` yielded a TGI (U251 CNS) of 36.5 µM, a TGI (NCI-H460 lung) of 46.9 µM and a TGI (ACHN renal) of 32.6 µM. It also gave a TGI (HCT-116 colon) of 32 µM, a TGI (NCI-H23 lung) of 30.6 µM and a TGI (SK-OV-3 ovarian) of 49.1 µM. The TGI (COLO 205 colon) was 27.9 µM, the TGI (HOP-62 NSCLC) was 32.7 µM and the TGI (PC-3 prostate) was 71 µM. The TGI (SK-MEL-5 melanoma) was 24.9 µM.
Compound `CCOc1cc2c(cc1O)CC[C@@H]1[C@@H]2CC[C@]2(C)C(OS(=O)OC3CC[C@@H]4[C@H]5CCc6cc(O)c(OCC)cc6[C@@H]5CC[C@@]34C)CC[C@@H]12` (stereo not given in full) has a TGI (U251 CNS) of 1.4 µM, a TGI (NCI-H460 lung) greater than 34.2 µM and a TGI (ACHN renal) greater than 81.7 µM. The TGI (HCT-116 colon) was greater than 39.6 µM, the TGI (NCI-H23 lung) was 14 µM and the TGI (SK-OV-3 ovarian) was greater than 37.3 µM. It also gave a TGI (COLO 205 colon) greater than 53.7 µM, a TGI (HOP-62 NSCLC) greater than 27 µM and a TGI (PC-3 prostate) of 24.9 µM. It also gave a TGI (SK-MEL-5 melanoma) of 3.84 µM.
Compound `NC(=O)c1ncn2c(=O)n(CCl)nnc12` has a TGI (U251 CNS) greater than 100 µM, a TGI (NCI-H460 lung) greater than 100 µM and a TGI (ACHN renal) greater than 100 µM. It also gave a TGI (HCT-116 colon) greater than 100 µM, a TGI (NCI-H23 lung) greater than 100 µM and a TGI (SK-OV-3 ovarian) greater than 100 µM. For the same compound, the TGI (COLO 205 colon) was greater than 100 µM, the TGI (HOP-62 NSCLC) was greater than 100 µM and the TGI (PC-3 prostate) was greater than 100 µM. For the same compound, the TGI (SK-MEL-5 melanoma) was greater than 100 µM.
In the case of `N#CCSc1c(-c2ccccc2)c(=O)n(-c2ccccc2)c(=S)n1-c1ccccc1`, the TGI (U251 CNS) is reported as greater than 100 µM, the TGI (NCI-H460 lung) is reported as greater than 100 µM and the TGI (ACHN renal) is reported as greater than 100 µM. For the same compound, the TGI (HCT-116 colon) was greater than 100 µM, the TGI (NCI-H23 lung) was greater than 100 µM and the TGI (SK-OV-3 ovarian) was greater than 100 µM. The TGI (COLO 205 colon) was greater than 100 µM, the TGI (HOP-62 NSCLC) was greater than 100 µM and the TGI (PC-3 prostate) was greater than 100 µM. It also gave a TGI (SK-MEL-5 melanoma) greater than 100 µM.
Compound `COC(=O)C(Cc1ccccc1)NC(=O)c1ccc(CNC(=S)NCc2cccc(CNC(=S)NCc3ccccc3)c2)cc1` (stereo not given) has a TGI (U251 CNS) greater than 62.5 µM, a TGI (NCI-H460 lung) greater than 62.5 µM and a TGI (ACHN renal) greater than 62.5 µM. It also gave a TGI (HCT-116 colon) greater than 62.5 µM, a TGI (NCI-H23 lung) greater than 62.5 µM and a TGI (SK-OV-3 ovarian) greater than 62.5 µM. For the same compound, the TGI (COLO 205 colon) was greater than 62.5 µM, the TGI (HOP-62 NSCLC) was greater than 62.5 µM and the TGI (PC-3 prostate) was greater than 62.5 µM. For the same compound, the TGI (SK-MEL-5 melanoma) was greater than 62.5 µM.
`Cc1c(O)c(=O)ccn1CCc1c[nH]c2ccccc12` showed a TGI (U251 CNS) greater than 100 µM, a TGI (NCI-H460 lung) of 19.4 µM and a TGI (ACHN renal) of 23.5 µM. For the same compound, the TGI (HCT-116 colon) was greater than 100 µM, the TGI (NCI-H23 lung) was greater than 100 µM and the TGI (SK-OV-3 ovarian) was greater than 100 µM. For the same compound, the TGI (COLO 205 colon) was 73.9 µM, the TGI (HOP-62 NSCLC) was greater than 100 µM and the TGI (PC-3 prostate) was greater than 100 µM. For the same compound, the TGI (SK-MEL-5 melanoma) was 24.1 µM.
